{"source": "paper PMC5686190", "about": "(Scientific Reports, 2017)", "key": {"[1]": {"target": "recombinant NA-1 (H1N1 neuraminidase) (Influenza A virus, UniProt Q9IGQ6)", "sequence (Q9IGQ6 whole entry, looked up)": "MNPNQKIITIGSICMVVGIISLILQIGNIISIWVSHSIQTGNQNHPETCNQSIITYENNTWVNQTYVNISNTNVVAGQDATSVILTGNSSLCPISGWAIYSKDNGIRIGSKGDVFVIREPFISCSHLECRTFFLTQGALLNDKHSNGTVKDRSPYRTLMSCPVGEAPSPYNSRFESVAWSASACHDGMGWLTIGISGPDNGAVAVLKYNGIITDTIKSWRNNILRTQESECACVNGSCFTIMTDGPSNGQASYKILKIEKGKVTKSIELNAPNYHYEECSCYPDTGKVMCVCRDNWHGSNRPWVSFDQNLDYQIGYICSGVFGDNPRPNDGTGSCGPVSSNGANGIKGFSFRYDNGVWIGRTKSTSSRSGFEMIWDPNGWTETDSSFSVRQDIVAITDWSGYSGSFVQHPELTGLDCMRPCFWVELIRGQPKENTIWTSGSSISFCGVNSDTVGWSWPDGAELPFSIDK", "assay": "biochemical"}, "bacterial NA": {"system": "bacterial NA", "conditions": "cited from earlier work"}, "mouse liver sialidase": {"system": "mouse liver sialidase", "conditions": "cited from earlier work"}}, "note": "pIC50: −log10 of the molar value."}
{"smiles": "O=c1cc(-c2ccccc2)oc2cc(O)c(O)c(O)c12", "note": "[Baicalein]", "values": [{"measurement": "IC10 on NA-1 activity", "setting": "[1]", "value": "75.0 ± 29.1", "unit": "µg/mL"}, {"measurement": "pIC50", "setting": "[1]", "value": 3.23}]}
{"smiles": "O=C(O)[C@H]1O[C@@H](Oc2cc3oc(-c4ccccc4)cc(=O)c3c(O)c2O)[C@H](O)[C@@H](O)[C@@H]1O", "note": "[Baicalin]", "values": [{"measurement": "pIC50", "setting": "[1]", "value": 2.78}]}
{"smiles": "COc1ccc2cc3[n+](cc2c1OC)CCc1cc2c(cc1-3)OCO2", "note": "[Berberine]", "values": [{"measurement": "IC10 on NA-1 activity", "setting": "[1]", "value": "3.1 ± 0.8", "unit": "µg/mL"}, {"measurement": "pIC50", "setting": "[1]", "value": 3.63}]}
{"smiles": "c1c2c(cc3c1OCO3)-c1cc3ccc4c(c3c[n+]1CC2)OCO4", "note": "[Coptisine]", "values": [{"measurement": "pIC50", "setting": "[1]", "value": 3.49}, {"measurement": "Inhibition of bacterial NA activity", "setting": "bacterial NA", "value": "inhibited"}]}
{"smiles": "COc1cc2c(cc1OC)-c1cc3ccc4c(c3c[n+]1CC2)OCO4", "note": "[Epiberberine]", "values": [{"measurement": "pIC50", "setting": "[1]", "value": 4.00}]}
{"smiles": "COC(=O)C1=CO[C@@H](O[C@@H]2O[C@H](CO)[C@@H](O)[C@H](O)[C@H]2O)[C@@H]2C(CO)=CC[C@H]12", "note": "[Geniposide]", "values": [{"measurement": "IC10 on NA-1 activity", "setting": "[1]", "value": "2.8 ± 0.2", "unit": "µg/mL"}, {"measurement": "pIC50", "setting": "[1]", "value": 4.06}]}
{"smiles": "COc1cc2c(cc1O)CC[n+]1cc3c(OC)c(OC)ccc3cc1-2", "note": "[Jatrorrhizine]", "values": [{"measurement": "IC10 on NA-1 activity", "setting": "[1]", "value": "1.9 ± 0.1", "unit": "µg/mL"}, {"measurement": "pIC50", "setting": "[1]", "value": 4.17}, {"measurement": "Inhibition of bacterial NA activity", "setting": "bacterial NA", "value": "inhibited"}]}
{"smiles": "COc1c(O[C@@H]2O[C@H](C(=O)O)[C@@H](O)[C@H](O)[C@H]2O)cc2oc(-c3ccccc3)cc(=O)c2c1O", "note": "[Oroxylin A 7-O-β-D-glucuronide]", "values": [{"measurement": "IC10 on NA-1 activity", "setting": "[1]", "value": "29.3 ± 7.8", "unit": "µg/mL"}, {"measurement": "pIC50", "setting": "[1]", "value": 3.21}]}
{"smiles": "COc1c(O)cc2oc(-c3ccccc3)cc(=O)c2c1O", "note": "[Oroxylin A]", "values": [{"measurement": "IC10 on NA-1 activity", "setting": "[1]", "value": "5.1 ± 1.4", "unit": "µg/mL"}, {"measurement": "pIC50", "setting": "[1]", "value": 3.70}]}
{"smiles": "COc1cc2c(cc1OC)-c1cc3ccc(OC)c(OC)c3c[n+]1CC2", "note": "[Palmatine]", "values": [{"measurement": "IC10 on NA-1 activity", "setting": "[1]", "value": "2.1 ± 0.1", "unit": "µg/mL"}, {"measurement": "pIC50", "setting": "[1]", "value": 4.30}, {"measurement": "Inhibition of bacterial NA activity", "setting": "bacterial NA", "value": "inhibited"}]}
{"smiles": "CCC(CC)[C@H](NC(C)=O)[C@@H]1[C@H](O)[C@@H](C(=O)O)C[C@H]1N=C(N)N", "note": "[Peramivir, reference compound]", "values": [{"measurement": "IC10 on NA-1 activity", "setting": "[1]", "value": "64.8 ± 8.4", "unit": "µg/mL"}, {"measurement": "IC50 on NA-1 activity", "setting": "[1]", "value": "478.8 ± 15.6", "unit": "µg/mL"}]}
{"smiles": "COc1cc2c(cc1O)C[C@H]1c3cc(O)c(OC)cc3CC[N@@+]1(C)C2", "note": "[Phellodendrine]", "values": [{"measurement": "IC10 on NA-1 activity", "setting": "[1]", "value": "23.1 ± 2.7", "unit": "µg/mL"}, {"measurement": "pIC50", "setting": "[1]", "value": 3.22}]}
{"smiles": "COc1c(O)cc(O)c2c(=O)cc(-c3ccccc3)oc12", "note": "[Wogonin]", "values": [{"measurement": "Inhibition of mouse liver sialidase", "setting": "mouse liver sialidase", "value": "inhibited"}, {"measurement": "IC10 on NA-1 activity", "setting": "[1]", "value": "34.0 ± 5.1", "unit": "µg/mL"}, {"measurement": "pIC50", "setting": "[1]", "value": 3.06}]}
{"smiles": "COc1c(O[C@@H]2O[C@H](C(=O)O)[C@@H](O)[C@H](O)[C@H]2O)cc(O)c2c(=O)cc(-c3ccccc3)oc12", "note": "[Wogonoside]", "values": [{"measurement": "Inhibition of mouse liver sialidase", "setting": "mouse liver sialidase", "value": "inhibited"}, {"measurement": "IC10 on NA-1 activity", "setting": "[1]", "value": "19.6 ± 2.7", "unit": "µg/mL"}, {"measurement": "pIC50", "setting": "[1]", "value": 3.39}]}
